From patent publication US20230271965A1, “BICYCLIC HETEROARENES AND METHODS OF THEIR USE” (Kineta, Inc., priority 2020, published 2023)

Assays:
FAB1 TDP-43 yeast strain = assay: Propidium iodide viability assay, control FAB1 TDP-43 yeast strain; type: cell-based; conditions: across a range of compound concentrations (only 0.23 μM is shown), FIG. 5
Experimental: Generation of TDP-43 yeast model expressing human PIKfyve. Human PIKFYVE (“entry clone”) was cloned into pAG416GPDccdB (“destination vector”) according to standard Gateway cloning protocols (Invitrogen, Life Technologies). The resulting pAG416GPD-PIKFYVE plasmids were amplified in E. coli and plasmid identity confirmed by restriction digest and Sanger sequencing. […]
Transformed yeast were plated on solid agar plates with complete synthetic media lacking uracil (CSM-ura) and containing 2% glucose. […] Multiple independent isolates were further evaluated for cytotoxicity and TDP-43 expression levels.
Viability Assay. A control yeast strain with the wild-type yeast FAB1 gene and TDP-43 (“FAB1 TDP-43”, carries empty pAG416 plasmid), and the “PIKFYVE TDP-43” yeast strain, were assessed for toxicity using a propidium iodide viability assay. […] Wells containing DMSO alone were also evaluated as controls for compound effects. […]
Upon the completion of incubation, cultures were assayed for viability using propidium iodide (PI) to stain for dead/dying cells. […] A benchtop flow cytometer (Miltenyi MACSquant) was then used to assess red fluorescence ([…]), forward scatter, and side scatter (with following settings: gentle mix, high flow rate, fast measurement, 10,000 events). […]

[1] = test system: PIKFYVE TDP-43 yeast strain; assay: Propidium iodide viability assay, PIKFYVE TDP-43 yeast strain; type: cell-based; conditions: 0.23 μM, FIG. 6
From the text: Generation of TDP-43 yeast model expressing human PIKfyve. Human PIKFYVE (“entry clone”) was cloned into pAG416GPDccdB (“destination vector”) according to standard Gateway cloning protocols (Invitrogen, Life Technologies). The resulting pAG416GPD-PIKFYVE plasmids were amplified in E. coli and plasmid identity confirmed by restriction digest and Sanger sequencing. Lithium acetate/polyethylene glycol-based transformation was used to introduce the above PIKFYVE plasmid into a BY4741 yeast strain auxotrophic for the ura3 gene and deleted for two transcription factors that regulate the xenobiotic efflux pumps, a major efflux pump, and FAB1, the yeast ortholog of PIKFYVE (MATa, snq2::KILeu2; pdr3::KIura3; pdr1::NATMX; fab1::G418^R, his3; leu2; ura3; met15; LYS2+) (FIG. 2).
Transformed yeast were plated on solid agar plates with complete synthetic media lacking uracil (CSM-ura) and containing 2% glucose. Individual colonies harboring the control or PIKFYVE TDP-43 plasmids were recovered. A plasmid containing wild-type TDP-43 under the transcriptional control of the GAL1 promoter and containing the hygromycin-resistance gene as a selectable marker was transformed into the fab1::G418^R pAG416GPD-PIKFYVE yeast strain (FIG. 1). Transformed yeast were plated on CSM-ura containing 2% glucose and […] after overnight recovery in media lacking antibiotic. Multiple independent isolates were further evaluated for cytotoxicity and TDP-43 expression levels.
Viability Assay. A control yeast strain with the wild-type yeast FAB1 gene and TDP-43 (“FAB1 TDP-43”, carries empty pAG416 plasmid), and the “PIKFYVE TDP-43” yeast strain, were assessed for toxicity using a propidium iodide viability assay. Both yeast strains were transferred from solid CSM-ura/2% glucose agar plates into 3 mL of liquid CSM-ura/2% glucose media for 6-8 hours at 30° C. with aeration. Yeast cultures were then diluted to an optical density at 600 nm wavelength (OD600) of 0.005 in 3 mL of CSM-ura/2% raffinose and grown overnight at 30° C. with aeration to an OD600 of 0.3-0.8. Log-phase overnight cultures were diluted to OD600 of 0.005 in CSM-ura containing either 2% raffinose or galactose and 150 μL dispensed into each well of a flat bottom 96-well plates. Compounds formulated in 100% dimethyl sulfoxide (DMSO) were serially diluted in DMSO and 1.5 μL diluted compound transferred to the 96-well plates using a multichannel pipet. Wells containing DMSO alone were also evaluated as controls for compound effects. Tested concentrations ranged from 15 μM to […]. Cultures were immediately mixed to ensure compound distribution and covered plates incubated at 30° C. for 24 hours in a stationary, humified incubator.
Upon the completion of incubation, cultures were assayed for viability using propidium iodide (PI) to stain for dead/dying cells. A working solution of PI was made where, for each plate, 1 μL of 10 mM PI was added to 10 mL of CSM-ura (raffinose or galactose). The final PI solution (50 μL/well) was dispensed into each well of a new round bottom 96-well plate. The overnight 96-well assay plate was then mixed with a multichannel pipet and 50 μL transferred to the PI-containing plate. This plate was then incubated for 30 minutes at 30° C. in the dark. A benchtop flow cytometer (Miltenyi MACSquant) was then used to assess red fluorescence ([…]), forward scatter, and side scatter (with following settings: gentle mix, high flow rate, fast measurement, 10,000 events). Intensity histograms were then gated for “PI-positive” or “PI-negative” using the raffinose and galactose cultures treated with DMSO as controls. The DMSO controls for raffinose or galactose-containing cultures were used to determine the window of increased cell death and this difference set to 100. All compounds were similarly gated and then compared to this maximal window to establish the percent reduction in PI-positive cells.

[2] = test system: PIKFYVE TDP-43 yeast strain; assay: as above; type: cell-based; conditions: concentrations ranging from 0.5 mM to less than 100 nM
[3] = target: T1, full-length human PIKFYVE (GST-PIKFYVE) (Homo sapiens, UniProt Q9Y2I7, L932S/Q1183K/Q995L/S1033A/S696N/T998S); assay: PIKfyve biochemical assay (ADP-Glo Kinase assay, Carna Biosciences); conditions: ADP-Glo, full-length human PIKFYVE; read-out: hPIKfyve IC50
T1 construct: A full-length human PIKFYVE [1-2098 (end) amino acids; purchased Carna Biosciences; host or cells: baculovirus expression system
Experimental: PIKfyve Biochemical Assay. The biochemical PIKFyve inhibition assays were run by Carna Biosciences according to proprietary methodology based on the Promega ADP-Glo™ Kinase assay. […] GST-PIKFYVE was purified by using glutathione sepharose chromatography and used in an ADP-Glo™ Kinase assay (Promega). Reactions were set up by adding the test compound solution, substrate solution, ATP solution and kinase solution, each at 4×final concentrations. Reactions were prepared with assay buffer (50 mM MOPS, 1 mM DTT, pH7.2), mixed, and incubated in black 384 well polystyrene plates for 1 hour at room temperature. ADP-Glo™ reagent was then added for 40 minutes, followed by kinase detection reagent for an additional 40 minutes. The kinase activity was evaluated by detecting relative light units on a luminescence plate reader. Samples were run in duplicate from 10 μM to 3 nM. […] IC50 values were calculated from concentration vs % inhibition curves by fitting to a four-parameter logistic curve.
The biochemical PIKFyve inhibition assays were run by Carna Biosciences according to proprietary methodology based on the Promega ADP-Glo™ Kinase assay. […] GST-PIKFYVE was purified by using glutathione sepharose chromatography and used in an ADP-Glo™ Kinase assay (Promega).
Reactions were set up by adding the test compound solution, substrate solution, ATP solution and kinase solution, each at 4×final concentrations. Reactions were prepared with assay buffer (50 mM MOPS, 1 mM DTT, pH7.2), mixed, and incubated in black 384 well polystyrene plates for 1 hour at room temperature. ADP-Glo™ reagent was then added for 40 minutes, followed by kinase detection reagent for an additional 40 minutes. The kinase activity was evaluated by detecting relative light units on a luminescence plate reader. Samples were run in duplicate from 10 uM to 3 nM. […] IC50 values were calculated from concentration vs % inhibition curves by fitting to a four-parameter logistic curve.

[4] = target: T2, PIKfyve (PIKFYVE-NanoLuc fusion in HEK293 cells) (Homo sapiens, UniProt Q9Y2I7); assay: NanoBRET TE Intracellular Kinase Assay, K-8 (Promega) cell-based assay; conditions: 2 hours, read-out: hPIKfyve BRET IC50
T2 construct: containing a full-length PIKfyve according to manufacturer's specifications; host or cells: HEK293
Experimental: NanoBRET™ TE Intracellular Kinase Assay, K-8 (Promega) Cell-Based Assay. Intracellular inhibition of PIKfyve was assayed using Promega's NanoBRET™ TE Intracellular Kinase Assay, K-8 according to manufacturer's instructions. A dilution series of test compounds was added for 2 hours to HEK293 cells transfected for a minimum of 20 hours with PIKFYVE-NanoLuc® Fusion Vector (Promega) containing a full-length PIKfyve according to manufacturer's specifications in a 96-well plate. Kinase activity was detected by addition of a NanoBRET™ tracer reagent, which was a proprietary PIKfyve inhibitor appended to a fluorescent probe (BRET, bioluminescence resonance energy transfer). Test compounds were tested at concentrations of 10, 3, 1, 0.3, 0.1, 0.03, 0.01, 0.003 μM. BRET signals were measured by a GloMax® Discover Multimode Microplate Reader (Promega) using 0.3 sec/well integration time, 450BP donor filter and 600LP acceptor filters. Active test compounds that bound PIKfyve and displaced the tracer reduced BRET signal. IC50 values were then calculated by fitting the data to the normalized BRET ratio.

T2 sequence (Q9Y2I7 whole entry, the tested form may be a part): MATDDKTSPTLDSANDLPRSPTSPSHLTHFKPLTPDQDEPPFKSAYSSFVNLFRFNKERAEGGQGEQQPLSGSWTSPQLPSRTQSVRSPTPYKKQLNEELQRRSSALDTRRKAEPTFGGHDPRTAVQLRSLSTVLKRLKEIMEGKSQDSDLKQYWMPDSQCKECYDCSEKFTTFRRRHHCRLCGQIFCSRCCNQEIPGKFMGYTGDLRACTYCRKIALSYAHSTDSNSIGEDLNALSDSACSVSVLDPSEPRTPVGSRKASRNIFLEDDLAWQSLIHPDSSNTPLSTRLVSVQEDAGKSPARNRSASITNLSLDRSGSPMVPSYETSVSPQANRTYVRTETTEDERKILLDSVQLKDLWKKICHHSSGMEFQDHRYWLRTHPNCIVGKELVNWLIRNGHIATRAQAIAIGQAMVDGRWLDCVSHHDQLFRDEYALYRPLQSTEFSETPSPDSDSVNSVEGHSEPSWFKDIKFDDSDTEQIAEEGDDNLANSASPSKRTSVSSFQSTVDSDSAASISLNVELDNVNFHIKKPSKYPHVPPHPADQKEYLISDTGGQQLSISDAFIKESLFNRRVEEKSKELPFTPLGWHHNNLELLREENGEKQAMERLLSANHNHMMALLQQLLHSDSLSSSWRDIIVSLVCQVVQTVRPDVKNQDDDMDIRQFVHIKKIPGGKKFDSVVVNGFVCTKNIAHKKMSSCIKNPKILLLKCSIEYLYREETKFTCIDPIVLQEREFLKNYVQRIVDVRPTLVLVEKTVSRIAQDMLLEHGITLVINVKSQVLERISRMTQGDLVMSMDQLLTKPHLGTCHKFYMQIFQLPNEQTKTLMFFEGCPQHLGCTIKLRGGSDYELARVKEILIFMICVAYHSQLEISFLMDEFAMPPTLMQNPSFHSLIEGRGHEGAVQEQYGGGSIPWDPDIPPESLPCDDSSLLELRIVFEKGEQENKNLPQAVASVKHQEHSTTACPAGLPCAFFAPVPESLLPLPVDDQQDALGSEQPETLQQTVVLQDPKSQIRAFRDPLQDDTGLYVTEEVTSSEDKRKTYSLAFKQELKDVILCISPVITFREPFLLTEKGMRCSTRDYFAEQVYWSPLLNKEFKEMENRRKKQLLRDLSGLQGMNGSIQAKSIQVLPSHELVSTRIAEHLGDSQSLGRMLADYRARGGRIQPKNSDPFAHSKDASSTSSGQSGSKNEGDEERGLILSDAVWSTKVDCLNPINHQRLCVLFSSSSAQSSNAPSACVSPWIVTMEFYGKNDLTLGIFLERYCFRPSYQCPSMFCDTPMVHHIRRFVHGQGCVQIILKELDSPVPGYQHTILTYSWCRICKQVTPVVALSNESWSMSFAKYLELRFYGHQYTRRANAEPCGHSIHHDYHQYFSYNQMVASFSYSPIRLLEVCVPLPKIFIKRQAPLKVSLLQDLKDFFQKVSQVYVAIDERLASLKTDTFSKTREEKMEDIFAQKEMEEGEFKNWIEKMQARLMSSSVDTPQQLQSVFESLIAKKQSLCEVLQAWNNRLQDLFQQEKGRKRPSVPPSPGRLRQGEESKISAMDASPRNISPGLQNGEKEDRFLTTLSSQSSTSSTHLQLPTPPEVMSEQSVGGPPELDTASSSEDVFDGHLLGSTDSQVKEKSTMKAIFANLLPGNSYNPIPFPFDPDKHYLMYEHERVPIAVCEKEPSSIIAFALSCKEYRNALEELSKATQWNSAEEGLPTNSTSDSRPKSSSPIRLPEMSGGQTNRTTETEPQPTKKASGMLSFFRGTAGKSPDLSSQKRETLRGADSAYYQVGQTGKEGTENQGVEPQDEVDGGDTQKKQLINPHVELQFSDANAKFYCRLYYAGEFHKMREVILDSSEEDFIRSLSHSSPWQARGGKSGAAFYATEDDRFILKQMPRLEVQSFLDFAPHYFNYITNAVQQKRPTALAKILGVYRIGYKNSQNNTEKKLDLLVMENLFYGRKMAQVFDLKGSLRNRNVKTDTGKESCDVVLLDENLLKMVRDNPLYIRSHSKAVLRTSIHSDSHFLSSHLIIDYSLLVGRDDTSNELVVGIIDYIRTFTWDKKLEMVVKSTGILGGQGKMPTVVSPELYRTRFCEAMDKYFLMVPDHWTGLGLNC
T1 sequence (Q9Y2I7 whole entry S696N/L932S/Q995L/T998S/S1033A/Q1183K): as the sequence (Q9Y2I7 whole entry, the tested form may be a part) above, with S696N, L932S, Q995L, T998S, S1033A, Q1183K counted along it

SMILES	IC50 [3] [nM]	IC50 [4] [nM]	also measured
Cc1cccc(/C=N/Nc2cc(N3CCOCC3)n3nc(-c4ccncc4)cc3n2)c1 [APY0201]	–	–	increase in viable cells in FAB1 TDP-43 (FAB1 TDP-43 yeast strain): no increase in viable cells; population of propidium iodide-positive dead cells in PIKFYVE TDP-43 [1]: reduced the population of propidium iodide-positive dead cells; viability in PIKFYVE TDP-43 model [2]: increased viability
CN1CCC(COc2nc(N3CCOCC3)nc3c2CCN3c2cccnc2)CC1 [Compound 111]	100 to 1000	1000 to 10000	–
c1cncc(Oc2nc(N3CCOCC3)nc3c2CCN3c2cccnc2)c1 [Compound 24, 4-(7-(pyridin-3-yl)-4-(pyridin-3-yloxy)-6,7-dihydro-5H-pyrrolo[2,3-d]pyrimidin-2-yl)morpholine]	10 to 100	1000 to 10000	–
c1cncc(N2CCc3c(OCCC4CCCO4)nc(N4CCOCC4)nc32)c1 (centres unmarked) [Compound 10]	< 10	100 to 1000	–
N#Cc1ccc(N2CCc3c(OCc4cccnc4)nc(N4CCOCC4)nc32)cc1 [Compound 21, 4-(2-morpholino-4-(pyridin-3-ylmethoxy)-5H-pyrrolo[2,3-d]pyrimidin-7(6H)-yl)benzonitrile]	–	100 to 1000	–

Further lines, with some results ahead:

IC50 [3] [nM]	IC50 [4] [nM]	SMILES	also measured
–	10 to 100	c1ccc(N2CCc3c(OCCc4ccccn4)nc(N4CCOCC4)nc32)cc1 [Compound 1, 4-(7-phenyl-4-(2-(pyridin-2-yl)ethoxy)-6,7-dihydro-5H-pyrrolo[2,3-d]pyrimidin-2-yl)morpholine]	–
–	100 to 1000	c1ccc(N2CCc3c(OCc4cccnn4)nc(N4CCOCC4)nc32)cc1 [Compound 5]	–
< 10	10 to 100	c1ccc(N2CCc3c(-c4ccncc4)nc(N4CCOCC4)nc32)cc1 [Compound 41, 4-(7-phenyl-4-(pyridin-4-yl)-6,7-dihydro-5H-pyrrolo[2,3-d]pyrimidin-2-yl)morpholine]	–
< 10	100 to 1000	c1ccc(N2CCc3c(Oc4cccnc4)nc(N4CCOCC4)nc32)cc1 [Compound 22, 4-(7-phenyl-4-(pyridin-3-yloxy)-6,7-dihydro-5H-pyrrolo[2,3-d]pyrimidin-2-yl)morpholine]	–
–	100 to 1000	OCC(O)COc1nc(N2CCOCC2)nc2c1CCN2c1ccccc1 (centres unmarked) [Compound 25, 3-((2-morpholino-7-phenyl-6,7-dihydro-5H-pyrrolo[2,3-d]pyrimidin-4-yl)oxy)propane-1,2-diol]	–
